Assay results: patent publication US20260092057A1, “BCL-XL/BCL-2 DEGRADERS AND USES THEREOF” (Kymera Therapeutics, Inc., priority 2022, published 2026)

Tests used:
Format in all cases: cell-based
[1] = system: Caki-2 cells; assay: CTG (CellTiter-Glo) cell viability assay, Caki-2; details: Homo sapiens, CAKI-2, 72 h, Caki-2, 3-day; read-out: CTG Chempartner/PHA- Caki-2 3-day: Average external-IC50
Summary of the method: (§1)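 Viability read by CellTiter-Glo luminescence after 3 days' compound exposure at 37 °C under 5% CO2, with 10,000 cells per well. Dosing was nine 1:3 dilutions starting at 10 µM, DMSO normalized to 0.2%; IC50 values come from three-parameter logistic curve fitting.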

[2] = target: T1, BCL-XL (Homo sapiens, UniProt Q07817); assay: BCL-XL degradation assay in MOLT-4 cells (ELISA, 6 h); details: for DC50: read-out: Bcl-xL ELISA in MOLT-4 degradation 6 h: External Abs-DC50
T1 construct: BCL-XL degradation results in MOLT-4 cells for compounds of the invention; endogenous in cells; host or cells: MOLT-4
T1 sequence (Q07817 whole entry): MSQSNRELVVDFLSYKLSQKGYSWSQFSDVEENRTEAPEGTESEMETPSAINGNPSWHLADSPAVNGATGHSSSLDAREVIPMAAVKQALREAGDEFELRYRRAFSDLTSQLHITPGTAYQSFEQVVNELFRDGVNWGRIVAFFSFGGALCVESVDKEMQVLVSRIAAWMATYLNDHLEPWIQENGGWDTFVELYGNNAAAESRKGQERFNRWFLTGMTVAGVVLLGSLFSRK

[3] = system: MOLT-4 cells; assay: CTG (CellTiter-Glo) cell viability assay, MOLT-4; details: Homo sapiens, MOLT-4, 72 h, MOLT-4, 3 day; read-out: CTG Cell Viability Assay - MOLT-4 3 day: Average external-IC50
Summary of the method: as §1

| Dmax [2] [%] | DC50 [2] [µM] | IC50 [3] [µM] | Structure (SMILES) | IC50 [1] [µM] |
| --- | --- | --- | --- | --- |
| < 50 | 0.5 to 1 | > 3 | Cc1ncsc1-c1ccc([C@H](C)NC(=O)[C@@H]2C[C@@H](O)CN2C(=O)[C@@H](NC(=O)CCCCCC(=O)N2CCN(CCCN(C)CC[C@H](CSc3ccccc3)Nc3ccc(S(=O)(=O)NC(=O)c4ccc(N5CCC([C@@H](O)c6ccccc6-c6ccc(Cl)cc6)CC5)cc4)cc3S(=O)(=O)C(F)(F)F)CC2)C(C)(C)C)cc1 [I-24] | > 30 |
| > 75 | 0.01 to 0.1 | 0.1 to 1 | Cc1ncsc1-c1ccc([C@H](C)NC(=O)[C@@H]2C[C@@H](O)CN2C(=O)[C@@H](NC(=O)CCCCCCC(=O)N2CCN(Cc3ccc(-c4ccc(Cl)cc4)c([C@H](O)C4CCN(c5ccc(C(=O)NS(=O)(=O)c6ccc(N[C@H](CCN(C)CCO)CSc7ccccc7)c(S(=O)(=O)C(F)(F)F)c6)cc5)CC4)c3)CC2)C(C)(C)C)cc1 [I-25] | > 30 |
| > 75 | 0.01 to 0.1 | < 0.1 | Cc1ncsc1-c1ccc([C@H](C)NC(=O)[C@@H]2C[C@@H](O)CN2C(=O)[C@@H](NC(=O)CCCCCC(=O)N2CCN(CC[C@H](CSc3ccccc3)Nc3ccc(S(=O)(=O)NC(=O)c4ccc(N5CCC([C@@H](O)c6ccccc6-c6ccc(Cl)cc6)CC5)cc4)cc3S(=O)(=O)C(F)(F)F)CC2)C(C)(C)C)cc1 [I-28, (2S,4R)-1-((S)-2-(7-(4-((R)-3-((4-(N-(4-(4-((R)-(4′-chloro-[1,1′-biphenyl]-2-yl)(hydroxy)methyl)piperidin-1-yl)benzoyl)sulfamoyl)-2-((trifluoromethyl)sulfonyl)phenyl)amino)-4-(phenylthio)butyl)piperazin-1-yl)-7-oxoheptanamido)-3,3-dimethylbutanoyl)-4-hydroxy-N—((S)-1-(4-(4-methylthiazol-5-yl)phenyl)ethyl)pyrrolidine-2-carboxamide] | 10 to 30 |
| 50 to 75 | 0.01 to 0.1 | 0.1 to 1 | Cc1ncsc1-c1ccc(CNC(=O)[C@@H]2C[C@@H](O)CN2C(=O)[C@@H](NC(=O)C2(F)CC2)C(C)(C)C)c(OCCN2CCN(CC[C@H](CSc3ccccc3)Nc3ccc(S(=O)(=O)NC(=O)c4ccc(N5CCC6(CC5)CC(N5CCC[C@H]5c5ccccc5C5CC5)C6)cc4)cc3S(=O)(=O)C(F)(F)F)CC2)c1 [I-31, (2S,4R)—N-(2-(2-(4-((R)-3-((4-(N-(4-(2-((S)-2-(2-cyclopropylphenyl)pyrolidine-1-yl)-7-azaspiro[3.5]nonan-7-yl)benzoyl)sulfamoyl)-2-((trifluoromethyl)sulfonyl)phenyl)amino)-4-(phenylthio)butyl)piperazin-1-yl)ethoxy)-4 (4-methylthiazol-5-yl)benzyl)-1-((S)-2-(1-fluorocyclopropanecarboxamido)-3,3-dimethylbutanoyl)-4-hydroxypyrrolidine-2-carboxamide] | < 5 |
| > 75 | 0.01 to 0.1 | > 3 | Cc1ncsc1-c1ccc([C@H](C)NC(=O)[C@@H]2C[C@@H](O)CN2C(=O)[C@@H](NC(=O)CCCCCC(=O)N2CCN(CC[C@H](CSc3ccccc3)Nc3ccc(S(=O)(=O)NC(=O)c4ccc(N5CCN(Cc6ccccc6-c6ccc(Cl)cc6)CC5)cc4)cc3[N+](=O)[O-])CC2)C(C)(C)C)cc1 [I-35] | > 30 |
| < 50 | 0.5 to 1 | > 3 | Cc1ncsc1-c1ccc([C@H](C)NC(=O)[C@@H]2C[C@@H](O)CN2C(=O)[C@@H](NC(=O)CCCCCC(=O)N2CCN(CC[C@H](CSc3ccccc3)Nc3ccc(S(=O)(=O)NC(=O)c4ccc(N5CCOCC5)cc4)cc3S(=O)(=O)C(F)(F)F)CC2)C(C)(C)C)cc1 [I-36] | > 30 |
| < 50 | 0.5 to 1 | > 3 | Cc1ncsc1-c1ccc([C@H](C)NC(=O)[C@@H]2C[C@@H](O)CN2C(=O)[C@@H](NC(=O)CCCCCC(=O)N2CCN(CC[C@H](CSc3ccccc3)Nc3ccc(S(=O)(=O)NC(=O)c4ccc(N5CC6CC6C5)cc4)cc3S(=O)(=O)C(F)(F)F)CC2)C(C)(C)C)cc1 (some centres unmarked) [I-37] | > 30 |
| 50 to 75 | 0.1 to 0.5 | > 3 | Cc1ncsc1-c1ccc([C@H](C)NC(=O)[C@@H]2C[C@@H](O)CN2C(=O)[C@@H](NC(=O)CCCCCC(=O)N2CCN(CC[C@H](CSc3ccccc3)Nc3ccc(S(=O)(=O)NC(=O)c4ccc(NC5CCOCC5)cc4)cc3S(=O)(=O)C(F)(F)F)CC2)C(C)(C)C)cc1 [I-39] | > 30 |
| 50 to 75 | 0.5 to 1 | > 3 | Cc1ncsc1-c1ccc([C@H](C)NC(=O)[C@@H]2C[C@@H](O)CN2C(=O)[C@@H](NC(=O)CCCCCC(=O)N2CCN(CC[C@H](CSc3ccccc3)Nc3ccc(S(=O)(=O)NC(=O)c4ccc(N5CC6CCC5C6)cc4)cc3S(=O)(=O)C(F)(F)F)CC2)C(C)(C)C)cc1 (some centres unmarked) [I-40] | > 30 |
| < 50 | 0.5 to 1 | > 3 | Cc1ncsc1-c1ccc([C@H](C)NC(=O)[C@@H]2C[C@@H](O)CN2C(=O)[C@@H](NC(=O)CCCCCC(=O)N2CCN(CC[C@H](CSc3ccccc3)Nc3ccc(S(=O)(=O)NC(=O)c4ccc(N5CCCN(C)CC5)cc4)cc3S(=O)(=O)C(F)(F)F)CC2)C(C)(C)C)cc1 [I-41] | > 30 |
| > 75 | 0.01 to 0.1 | < 0.1 | Cc1ncsc1-c1ccc([C@H](C)NC(=O)[C@@H]2C[C@@H](O)CN2C(=O)[C@@H](NC(=O)CCCCCC(=O)N2CCN(CC[C@H](CSc3ccccc3)Nc3ccc(S(=O)(=O)NC(=O)c4ccc(N5CCN(CC6=C(c7ccc(Cl)cc7)CC(C)(C)CC6)CC5)cc4)cc3S(=O)(=O)C(F)(F)F)CC2)C(C)(C)C)cc1 [I-42] | 5 to 10 |
| 50 to 75 | 0.1 to 0.5 | 1 to 3 | Cc1ncsc1-c1ccc([C@H](C)NC(=O)[C@@H]2C[C@@H](O)CN2C(=O)[C@@H](NC(=O)CCCCCC(=O)N2CCN(CCCNc3ccc(S(=O)(=O)NC(=O)c4ccc(N5CCN(Cc6ccccc6-c6ccc(Cl)cc6)CC5)cc4Oc4cnc5[nH]ccc5c4)cc3S(=O)(=O)C(F)(F)F)CC2)C(C)(C)C)cc1 [I-51] | > 30 |
| 50 to 75 | 0.1 to 0.5 | 0.1 to 1 | Cc1ncsc1-c1ccc([C@H](C)NC(=O)[C@@H]2C[C@@H](O)CN2C(=O)[C@@H](NC(=O)CCCCCC(=O)N2CCN(CCCNc3ccc(S(=O)(=O)NC(=O)c4ccc(N5CCN(CC6=C(c7ccc(Cl)cc7)CCC(C)(C)C6)CC5)cc4Oc4cnc5[nH]ccc5c4)cc3S(=O)(=O)C(F)(F)F)CC2)C(C)(C)C)cc1 [I-52] | > 30 |
| 50 to 75 | 0.1 to 0.5 | 1 to 3 | Cc1ncsc1-c1ccc([C@H](C)NC(=O)[C@@H]2C[C@@H](O)CN2C(=O)[C@@H](NC(=O)CCCCC(=O)N2CCN(CCCNc3ccc(S(=O)(=O)NC(=O)c4ccc(N5CCN(CC6=C(c7ccc(Cl)cc7)CC(C)(C)CC6)CC5)cc4Oc4cnc5[nH]ccc5c4)cc3S(=O)(=O)C(F)(F)F)CC2)C(C)(C)C)cc1 [I-63] | > 30 |
| 50 to 75 | 0.01 to 0.1 | < 0.1 | Cc1ncsc1-c1ccc([C@H](C)NC(=O)[C@@H]2C[C@@H](O)CN2C(=O)[C@@H](NC(=O)CCCCCCC(=O)N2CCN(C[C@]3(C)CCC(c4ccc(Cl)cc4)=C(CN4CCN(c5ccc(C(=O)NS(=O)(=O)c6ccc(NCCCN7CCOCC7)c(S(=O)(=O)C(F)(F)F)c6)c(Oc6cnc7[nH]ccc7c6)c5)CC4)C3)CC2)C(C)(C)C)cc1 [I-65] | 10 to 30 |
| 50 to 75 | 0.5 to 1 | > 3 | Cc1ncsc1-c1ccc([C@H](C)NC(=O)[C@@H]2C[C@@H](O)CN2C(=O)[C@@H](NC(=O)CCCCCN(C)CCCNc2ccc(S(=O)(=O)NC(=O)c3ccc(N4CCC([C@H](O)c5ccccc5-c5ccc(Cl)cc5)CC4)cc3Oc3cnc4[nH]ccc4c3)cc2S(=O)(=O)C(F)(F)F)C(C)(C)C)cc1 [I-67] | > 30 |
| < 50 | 0.5 to 1 | > 3 | Cc1ncsc1-c1ccc([C@H](C)NC(=O)[C@@H]2C[C@@H](O)CN2C(=O)[C@@H](NC(=O)CCCCCN(C)CCCNc2ccc(S(=O)(=O)NC(=O)c3ccc(N4CCN(CC5=C(c6ccc(Cl)cc6)CC(C)(C)CC5)CC4)cc3Oc3cnc4[nH]ccc4c3)cc2S(=O)(=O)C(F)(F)F)C(C)(C)C)cc1 [I-69] | > 30 |
| < 50 | 0.5 to 1 | 0.1 to 1 | Cc1ncsc1-c1ccc([C@H](C)NC(=O)[C@@H]2C[C@@H](O)CN2C(=O)[C@@H](NC(=O)CCCCCN2CCN(CCCNc3ccc(S(=O)(=O)NC(=O)c4ccc(N5CCN(CC6=C(c7ccc(Cl)cc7)CC(C)(C)CC6)CC5)cc4Oc4cnc5[nH]ccc5c4)cc3S(=O)(=O)C(F)(F)F)CC2)C(C)(C)C)cc1 [I-74] | > 30 |
| > 75 | 0.01 to 0.1 | < 0.1 | Cc1ncsc1-c1ccc([C@H](C)NC(=O)[C@@H]2C[C@@H](O)CN2C(=O)[C@@H](NC(=O)CCCCCCC(=O)N2CCN(CCCNc3ccc(S(=O)(=O)NC(=O)c4ccc(N5CCN(CC6=C(c7ccc(Cl)cc7)CC(C)(C)CC6)CC5)cc4Oc4cnc5[nH]ccc5c4)cc3S(=O)(=O)C(F)(F)F)CC2)C(C)(C)C)cc1 [I-81] | > 30 |
| < 50 | 0.5 to 1 | 0.1 to 1 | C#Cc1ccc([C@H](C)NC(=O)[C@@H]2C[C@@H](O)CN2C(=O)[C@@H](NC(=O)CCCCCC(=O)N2CCN(CCCNc3ccc(S(=O)(=O)NC(=O)c4ccc(N5CCN(CC6=C(c7ccc(Cl)cc7)CC(C)(C)CC6)CC5)cc4Oc4cnc5[nH]ccc5c4)cc3S(=O)(=O)C(F)(F)F)CC2)C(C)(C)C)cc1 [I-85] | > 30 |
